{"source": "patent US9618513B2", "about": "“Compositions and methods for detecting and treating colorectal cancer” (The Regents of the University of Michigan, priority 2014, dated 2017)", "key": {"DLD-1 colon cancer cells": {"tested_on": "DLD-1 colon cancer cells", "test": "In vivo tumor formation of DLD-1 cells in NSG mice", "design": "species or system NOD/Shi-scid/IL-2Rγnull (NSG) mice", "text": "(A), IL-22 is expressed in colon cancer tissues. IL-22 mRNA was detected by real-time PCR in colon cancer tissues and peripheral blood. *P<0.05 compared to blood, 20 colon cancer patients. (B-D), Endogenous IL-22 promotes colon carcinogenesis. Single cells (10^7) isolated from colon cancer tissue were mixed with anti-IL-22 antibody or control mAb, and then subcutaneously injected to NSG mice. Tumor growth (B), incidence (C), and animal survival (D) are shown. (P<0.05 for all, n=5 per group). (E-G) Recombinant IL-22 promotes colon carcinogenesis. DLD-1 colon cancer cells (10^5) were pre-incubated with IL-22 (20 ng/ml) for 1 hour, and then subcutaneously injected to NSG mice. Tumor growth (E), incidence (F), and animal survival (G) are shown. (P<0.05 for all, n=5 per group). (H, I) IL-22 enhances colon cancer sphere formation. DLD-1 colon cancer cells were pre-incubated for 24 hours with IL-22. Sphere assay was performed with 2,000 cells. Representative image of spheres (H) and the mean numbers of spheres (I) are shown. *P<0.05, n=5. (J) IL-22 increases ALDH1 activity in colon cancer cells. Colon cancer cell lines (DLD-1 and HT29) and two primary colon cancer cells (1, 2) were cultured with IL-22 for 24 hours. ALDH activity was determined by FACS based on aldefluor fluorescence. Cells treated with DEAB inhibitor were negative controls. Results are expressed as fold changes of ALDH expression. (P<0.05 for all, n=3 repeats per group). (K-M) IL-22 stimulates core stem cell gene expression in colon cancer cells. DLD-1 colon cancer cells were cultured with IL-22 (20 ng/ml). The mRNA of stem cell core gene was detected by real-time PCR (K) and proteins were detected by western blotting (L, M). (*P<0.05, n=5).\nIL-22 treated 10^6 DLD-1 cells were inoculated into NSG mice. Tumor incidence (A) and tumor growth (B) were recorded. n=5 per group, P<0.05.\nTo confirm the tumorigenic potential of endogenous IL-22, different concentrations of a colorectal adenocarcinoma cancer cell line, DLD-1 cells, were injected into the NSG mice to determine a nontumorigenic concentration. […] However, exogenous IL-22 administration enabled tumor formation with 10^5DLD-1 cells as shown by increased tumor volume (FIG. 1E) and incidence (FIG. 1F) and decreased mouse survival (FIG. 1G). When 10^6 DLD-1 cells were inoculated into mice, IL-22 accelerated tumor development (FIG. 13A) and growth as well (FIG. 13B). Thus, IL-22 may enhance tumorigenesis by altering cancer stem cell properties.\nColon cancer cells (10^2-5×10^6) in 100 μl of buffered saline were subcutaneously injected into dorsal tissues of female NOD/Shi-scid/IL-2Rγnull (NSG) mice (6-8 weeks old, Jackson Lab, Bar Harbor, Me.) (see, e.g., Curiel, T. J. et al. (2004) Nat Med 10, 942-949; Curiel, T. J. et al. (2003) Nat Med 9, 562-567; Kryczek, I. et al. (2012) Int J Cancer 130, 29-39). Tumor size was measured two times weekly using calipers fitted with a Vernier scale. Tumor volume was calculated based on three perpendicular measurements (see, e.g., Curiel, T. J. et al. (2004) Nat Med 10, 942-949; Curiel, T. J. et al. (2003) Nat Med 9, 562-567). Tumor incidence was monitored."}, "[1]": {"tested_on": "NANOG, SOX2, POU5F1 (OCT3/4)", "test": "Stem cell core gene expression (real-time PCR, western blotting)", "assay_type": "cell-based, human", "conditions": "DLD-1, IL-22 20 ng/ml", "text": "(A), IL-22 is expressed in colon cancer tissues. IL-22 mRNA was detected by real-time PCR in colon cancer tissues and peripheral blood. *P<0.05 compared to blood, 20 colon cancer patients. (B-D), Endogenous IL-22 promotes colon carcinogenesis. Single cells (10^7) isolated from colon cancer tissue were mixed with anti-IL-22 antibody or control mAb, and then subcutaneously injected to NSG mice. Tumor growth (B), incidence (C), and animal survival (D) are shown. (P<0.05 for all, n=5 per group). (E-G) Recombinant IL-22 promotes colon carcinogenesis. DLD-1 colon cancer cells (10^5) were pre-incubated with IL-22 (20 ng/ml) for 1 hour, and then subcutaneously injected to NSG mice. […] ALDH activity was determined by FACS based on aldefluor fluorescence. […] Results are expressed as fold changes of ALDH expression. […] The mRNA of stem cell core gene was detected by real-time PCR (K) and proteins were detected by western blotting (L, M). […]\n(A, B) IL-22 is expressed by immune cells in colon cancer tissues. Different cell populations were sorted from colon cancer tissues and IL-22 expression was measured by real time PCR. […] IL-22 was detected via ELISA. […] IL-22 was detected with ELISA (D) or intracellular staining (E). […] IL-22 mRNA was detected by real time PCR (F) and protein by ELISA (G). […] IL-22 expression was quantified with real-time PCR in the migrated and non-migrated cells. […]"}, "[2]": {"conditions": "10^5 DLD-1 cells pre-incubated with IL-22 (20 ng/ml) 1 hour"}}, "data": [{"substance": "IL-22: recombinant IL-22 (R&D systems), cytokine interleukin-22", "values": [{"measurement": "mouse survival", "setting": "DLD-1 colon cancer cells; [2]", "result": "decreased"}, {"measurement": "tumor incidence", "setting": "DLD-1 colon cancer cells; [2]", "result": "increased"}, {"measurement": "tumor volume", "setting": "DLD-1 colon cancer cells; [2]", "result": "increased"}, {"measurement": "tumor development (incidence)", "setting": "DLD-1 colon cancer cells; 10^6 IL-22 treated DLD-1 cells", "result": "accelerated"}, {"measurement": "tumor growth", "setting": "DLD-1 colon cancer cells; 10^6 IL-22 treated DLD-1 cells", "result": "accelerated"}, {"measurement": "mRNA levels of stem cell core genes NANOG, SOX2, POU5F1 (OCT3/4)", "setting": "[1]; real-time PCR", "result": "enhanced"}, {"measurement": "protein levels of stem cell core genes NANOG, SOX2, POU5F1 (OCT3/4)", "setting": "[1]; western blotting", "result": "enhanced"}]}]}
